Source: ChEMBL document CHEMBL1201862, “PubChem BioAssay data set” (2004)
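Interpolation was linear, between the two tested concentrations surrounding the appropriate level; five concentrations were tested over 48 hours in 96-well plates. At the GI50, growth is halved.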 The source made the active and inactive calls. Cut-off read from the data, not from the text of the source: active = GI50 up to about 1.1 µM and inactive = higher.

How the values were obtained:
Assay in all cases: growth of human tumour cells (NCI), 48 h
786-0 = tested on: 786-0
ACHN = tested on: ACHN
COLO 205 = tested on: COLO 205
EKVX = tested on: EKVX
HCT-15 = tested on: HCT-15
Malme-3M = tested on: Malme-3M
NCI-H226 = tested on: NCI-H226
RPMI-8226 = tested on: RPMI-8226
SF-268 = tested on: SF-268
SK-MEL-2 = tested on: SK-MEL-2
SR = tested on: SR
SW-620 = tested on: SW-620
U-251 = tested on: U-251
UACC-257 = tested on: UACC-257
UO-31 = tested on: UO-31
DU-145 = tested on: DU-145
KM12 = tested on: KM12
MDA-MB-435 = tested on: MDA-MB-435
NCI/ADR-RES = tested on: NCI/ADR-RES

Measured: GI50

CC1CCc2c(sc3ncnc(N/N=C/c4ccc(Cl)cc4)c23)C1 (stereo unspecified)
inactive: 786-0 34.7 µM | ACHN 27.3 µM | COLO 205 31.6 µM | EKVX 20.1 µM | Malme-3M > 100 µM | NCI-H226 11.7 µM | RPMI-8226 29.9 µM | SF-268 25.1 µM | SK-MEL-2 48.8 µM | SR 21.6 µM | SW-620 35.6 µM | U-251 31.9 µM | UACC-257 29.8 µM | UO-31 4.78 µM
32.3 µM: HCT-15

C=C1CC2CC(=O)C(O)C(C1)C2 (stereo unspecified)
> 100 µM: HCT-15
inactive: 786-0 > 100 µM | ACHN > 100 µM | COLO 205 > 100 µM | DU-145 > 100 µM | EKVX > 100 µM | KM12 > 100 µM | MDA-MB-435 > 100 µM | NCI-H226 > 100 µM | NCI/ADR-RES > 100 µM | RPMI-8226 > 100 µM | SF-268 > 100 µM | SR > 100 µM | SW-620 > 100 µM | UACC-257 > 100 µM | UO-31 > 100 µM

Cc1ccc(Cc2cc(N3CCN(c4cccc(Cl)c4)CC3)nnc2C)cc1
inactive: 786-0 45.2 µM | ACHN 88.5 µM | COLO 205 29.6 µM | DU-145 > 100 µM | EKVX 34.4 µM | KM12 44.4 µM | MDA-MB-435 27.7 µM | NCI/ADR-RES 43.3 µM | RPMI-8226 17.8 µM | SF-268 > 100 µM | SK-MEL-2 96.2 µM | SW-620 34.3 µM | U-251 32.7 µM | UACC-257 14.2 µM | UO-31 > 100 µM
63.8 µM: HCT-15

O/N=C\c1c(O)ccc2ccccc12
inactive: 786-0 46.2 µM | ACHN 24.8 µM | COLO 205 55.3 µM | EKVX 33 µM | KM12 42.3 µM | MDA-MB-435 65 µM | Malme-3M 12.6 µM | NCI-H226 33.3 µM | NCI/ADR-RES 68.2 µM | RPMI-8226 49.8 µM | SF-268 31.6 µM | SR 21.2 µM | SW-620 73.6 µM | U-251 51.8 µM | UACC-257 71.9 µM
32.2 µM: HCT-15

COc1ccc(C2NCCc3c2[nH]c2ccccc32)cc1 (stereo unspecified)
inactive: 786-0 83.8 µM | ACHN > 100 µM | COLO 205 32.2 µM | EKVX > 100 µM | KM12 > 100 µM | Malme-3M 27 µM | NCI-H226 > 100 µM | RPMI-8226 > 100 µM | SF-268 > 100 µM | SR 28.2 µM | SW-620 > 100 µM | U-251 > 100 µM | UACC-257 45.6 µM | UO-31 42.3 µM
> 100 µM: HCT-15

O=S(=O)(SC1=NCCN1)c1ccc2ccccc2c1
inactive: 786-0 28.1 µM | ACHN 39.5 µM | COLO 205 18.7 µM | DU-145 32 µM | EKVX 33.2 µM | KM12 20.2 µM | MDA-MB-435 20.7 µM | Malme-3M 72.6 µM | NCI-H226 28.9 µM | NCI/ADR-RES 21.8 µM | RPMI-8226 26.4 µM | SF-268 23.2 µM | SK-MEL-2 24.8 µM | SW-620 19.7 µM | U-251 23.8 µM | UACC-257 39.4 µM | UO-31 29.4 µM
25.1 µM: HCT-15

COC(=O)C1=Nc2c(C)nn(-c3ccccc3)c2N=C(c2ccc(C)cc2)C1
> 10 µM: HCT-15
inactive: 786-0 > 10 µM | ACHN > 10 µM | COLO 205 > 10 µM | DU-145 > 10 µM | KM12 > 10 µM | MDA-MB-435 > 10 µM | Malme-3M > 10 µM | NCI/ADR-RES > 10 µM | RPMI-8226 > 10 µM | SF-268 > 10 µM | SR > 10 µM | SW-620 > 10 µM | U-251 > 10 µM | UACC-257 > 10 µM

COc1ccc(NC(=O)/C(=N/NC(N)=S)C2C(=O)NC(=S)NC2=O)c(OC)c1
inactive: 786-0 > 100 µM | ACHN > 100 µM | COLO 205 > 100 µM | DU-145 > 100 µM | EKVX > 100 µM | KM12 > 100 µM | MDA-MB-435 > 100 µM | Malme-3M > 100 µM | NCI-H226 > 100 µM | NCI/ADR-RES > 100 µM | RPMI-8226 > 100 µM | SF-268 > 100 µM | SK-MEL-2 > 100 µM | SW-620 > 100 µM | U-251 > 100 µM | UACC-257 > 100 µM | UO-31 > 100 µM
> 100 µM: HCT-15

CC(=O)CC(=O)N1CCSC1=S
> 10 µM: HCT-15
inactive: 786-0 > 10 µM | ACHN > 10 µM | DU-145 > 10 µM | EKVX > 10 µM | KM12 > 10 µM | MDA-MB-435 > 10 µM | Malme-3M > 10 µM | NCI-H226 > 10 µM | RPMI-8226 > 10 µM | SF-268 > 10 µM | SK-MEL-2 > 10 µM | SR > 10 µM | SW-620 > 10 µM | U-251 > 10 µM | UACC-257 > 10 µM | UO-31 > 10 µM

CCSCCCN(CCCSCC)CCCSCC
> 100 µM: HCT-15
inactive: 786-0 > 100 µM | COLO 205 > 100 µM | DU-145 > 100 µM | KM12 > 100 µM | MDA-MB-435 > 100 µM | NCI/ADR-RES > 100 µM | SF-268 > 100 µM | SR > 100 µM | SW-620 > 100 µM | U-251 > 100 µM | UACC-257 > 100 µM | UO-31 > 100 µM

COc1ccc(C2C3COc4ccccc4C3=NN2c2ccccc2)cc1 (stereo unspecified)
inactive: 786-0 > 100 µM | ACHN > 100 µM | COLO 205 > 100 µM | EKVX > 100 µM | KM12 > 100 µM | MDA-MB-435 62.4 µM | Malme-3M > 100 µM | NCI-H226 > 100 µM | NCI/ADR-RES > 100 µM | RPMI-8226 > 100 µM | SF-268 > 100 µM | SK-MEL-2 > 100 µM | SR 31.6 µM | SW-620 > 100 µM | U-251 > 100 µM | UACC-257 > 100 µM | UO-31 > 100 µM
> 100 µM: HCT-15

CN1c2ccccc2S(=O)(=O)n2c(COc3ccc(Cl)cc3)nnc21
> 100 µM: HCT-15
inactive: 786-0 41.5 µM | ACHN > 100 µM | COLO 205 > 100 µM | DU-145 > 100 µM | EKVX > 100 µM | KM12 > 100 µM | MDA-MB-435 > 100 µM | NCI-H226 92.5 µM | NCI/ADR-RES > 100 µM | SF-268 55 µM | SK-MEL-2 > 100 µM | SW-620 > 100 µM | U-251 44 µM | UACC-257 > 100 µM | UO-31 > 100 µM

COC(=N)CCCl
> 100 µM: HCT-15
inactive: 786-0 > 100 µM | ACHN > 100 µM | COLO 205 > 100 µM | DU-145 > 100 µM | EKVX > 100 µM | KM12 > 100 µM | Malme-3M > 100 µM | NCI-H226 > 100 µM | NCI/ADR-RES > 100 µM | RPMI-8226 > 100 µM | SF-268 > 100 µM | SR > 100 µM | SW-620 > 100 µM | U-251 > 100 µM | UACC-257 > 100 µM | UO-31 > 100 µM

CCOC(=O)C(=O)N1C(C)=C(C(=O)OCC)CC(C(=O)OCC)=C1C
> 100 µM: HCT-15
inactive: 786-0 > 100 µM | ACHN > 100 µM | COLO 205 > 100 µM | DU-145 > 100 µM | EKVX > 100 µM | KM12 > 100 µM | MDA-MB-435 > 100 µM | Malme-3M > 100 µM | RPMI-8226 > 100 µM | SK-MEL-2 > 100 µM | SR > 100 µM | SW-620 > 100 µM | UACC-257 > 100 µM | UO-31 > 100 µM

C=C(CO)[C@H]1CC/C(C)=C/CC/C(C)=C/C/C=C(\C)[C@H](O)C1
inactive: 786-0 17.3 µM | ACHN 26.3 µM | COLO 205 22.3 µM | DU-145 49.3 µM | EKVX 33.2 µM | KM12 15.9 µM | MDA-MB-435 18.6 µM | NCI-H226 30.5 µM | NCI/ADR-RES 27.3 µM | RPMI-8226 20 µM | SF-268 22.2 µM | SK-MEL-2 22.8 µM | SW-620 20.2 µM | U-251 19.1 µM | UACC-257 19.7 µM | UO-31 30.9 µM
50 µM: HCT-15

CC(=O)Nc1oc(C)nc1C#N
inactive: 786-0 > 100 µM | ACHN > 100 µM | DU-145 > 100 µM | EKVX > 100 µM | KM12 > 100 µM | MDA-MB-435 > 100 µM | RPMI-8226 > 100 µM | SF-268 > 100 µM | SK-MEL-2 > 100 µM | SR > 100 µM | SW-620 > 100 µM | U-251 > 100 µM | UACC-257 > 100 µM
> 100 µM: HCT-15

COc1c(OC)c(O)c2c(=O)c(OC)c(-c3ccc4c(c3)OCO4)oc2c1O
inactive: 786-0 > 100 µM | ACHN > 100 µM | COLO 205 > 100 µM | DU-145 > 100 µM | EKVX > 100 µM | KM12 > 100 µM | MDA-MB-435 > 100 µM | Malme-3M > 100 µM | NCI-H226 > 100 µM | NCI/ADR-RES > 100 µM | SF-268 > 100 µM | SK-MEL-2 > 100 µM | SW-620 > 100 µM | U-251 > 100 µM | UACC-257 67 µM | UO-31 > 100 µM
> 100 µM: HCT-15

CCC1=C(C=O)c2cc3[nH]c(cc4nc(c5c6[nH]c(cc1n2)c(C)c6C(=O)C5C(=O)OC)C(CCC(=O)OC)C4C)c(C)c3CC (stereo unspecified)
inactive: 786-0 > 100 µM | ACHN > 100 µM | COLO 205 > 100 µM | DU-145 > 100 µM | EKVX > 100 µM | KM12 > 100 µM | MDA-MB-435 > 100 µM | Malme-3M > 100 µM | NCI-H226 > 100 µM | RPMI-8226 > 100 µM | SF-268 > 100 µM | SK-MEL-2 > 100 µM | SR > 100 µM | SW-620 > 100 µM | U-251 > 100 µM | UACC-257 > 100 µM | UO-31 > 100 µM
> 100 µM: HCT-15
